Data from patent US20050256134A1, “Use of creatine analogues and creatine kinase modulators for the prevention and treatment of glucose metabolic disorders” (AVICENA GROUP, INC., priority 1995, published 2005).

Experiments:
[1] = tested on: NZW rabbits, normal or infected with HCMV in their eyes; assay: Effect of cyclocreatine continuous intravenous infusion on glucose levels in rabbits; type: in vivo, rabbit; settings: for average glucose levels: 10 and 5 mg/ml
Method: The creatine compound cyclocreatine, was given as a continuous intravenous infusion (IV) to normal rabbits or rabbits infected with the human cytomegalovirus (HCMV) in their eyes (Rabbit Chorioretinal model). Glucose levels were recorded over a period of seven days. This compound was tested in infected as well as in normal animals due to the fact that these compounds were also being evaluated as anti viral agents, a biological activity that were reported in the U.S. Pat. No. 5,321,030. As will become clear in the data presented here the eye infection had no effect on the levels of glucose recorded. The schedule and dose selected in these experiments was based on prior experience working with this class of compounds as antiviral agents.
A total of 11 NZW rabbits weighing 1.75-2.0 Kg were used in the experiments. All animals were infused with various doses of cyclocreatine over a period of 1-7 days in a continuous infusion mode. Continuous infusions were achieved by surgical implantation of an indwelling catheter implant into the jugular vein by standard surgical procedures. The catheter was threaded through a steel sleeve and swivel apparatus attached to the back of the animal's neck which was anchored to a specially fitted vest. A Harvard Apparatus 2200 unifusion pump maintained drug delivery at a constant rate through out the experiment. This arrangement allowed the animal unimpaired movement within its cage. Animals received a bolus injection of antibiotics immediately after surgery and daily if needed. After animals recovered from the anesthesia, some animals were inoculated by intravitreal injection of AD169 HCMV (10^5 pfu). The remaining animals were left uninfected. Both infected and uninfected animals received a continuous infusion of cyclocreatine or saline for up to seven days. Concentrations of cyclocreatine were 5, 10, or 15 mg cyclocreatine/ml saline and infusion rates and volumes were adjusted to achieve the desired dose of 375-1125 mg/Kg/day. These concentrations were based on amounts required to achieve other biological activities such as antiviral or anticancer. […] The rest of the animals received a similar volume of sterile saline. […]

[2] = tested on: Zuker lean littermates (ZDF +/?); assay: Creatine compounds as 1% of the diet, glucose and insulin levels in lean littermates; type: in vivo, rat
Source text: This preliminary study was initiated to gain insight into the potential regulation of glucose levels by creatine compounds in ZDF rats, a widely studied rodent model of NIDDM (Peterson, Lessons from Animal Diabetes, 1994, Pages 225-230). Male Zuker diabetic fatty (ZDF-fa/fa) rats and their lean Zuker littermates (ZDF +/?) were from Genetic Models, Inc., Indianapolis, Ind. […] Hyperglycemia is initially manifested at about 7 weeks of age and all obese rats are fully diabetic by 12 weeks of age (fed blood glucose of greater than 500 mg %). This level of hyperglycemia increases slightly for several weeks thereafter. Between 7 and 10 weeks, blood insulin levels are high but these subsequently drop as the pancreatic beta cells cease to respond to the glucose stimulus. The lean (ZDF/Gmi) rats are the control counterparts of the diabetic animals. These rats have the same genetics as the obese animals except for the obesity trait. No phenotypic differences have been observed between these rats and other typical lean control rats.
Male Zuker diabetic fatty (ZDF-fa/fa) rats and Zuker lean littermates (ZDF +/?) were 12 weeks old when dosing with creatine compounds was initiated. The ZDF-fa/fa rats were completely diabetic. The littermates were the same age. […] Animals were bled regularly throughout the experiment and glucose and insulin levels were determined using standard procedures (Linco RI-13K). […]

[3] = uninfected, 15 mg/ml (1125 mg/Kg/day), day five

`NC1=NCCN1CC(=O)O` [cyclocreatine] was tested, and the “Glucose Levels” value ([1]; 5 mg/ml, HCMV infected, animal 1, day 0) was 177 mg/dL, the “Glucose Levels” value ([1]; 5 mg/ml, HCMV infected, animal 1, day 1) was 104 mg/dL and the “Glucose Levels” value ([1]; 5 mg/ml, HCMV infected, animal 1, day 3) was 70 mg/dL. For the same compound, the “Glucose Levels” value ([1]; 5 mg/ml, HCMV infected, animal 1, day 5) was 29 mg/dL, the “Glucose Levels” value ([1]; 5 mg/ml, HCMV infected, animal 2, day 0) was 177 mg/dL and the “Glucose Levels” value ([1]; 5 mg/ml, HCMV infected, animal 2, day 1) was 94 mg/dL. For the same compound, the “Glucose Levels” value ([1]; 5 mg/ml, HCMV infected, animal 2, day 3) was 49 mg/dL, the “Glucose Levels” value ([1]; 5 mg/ml, HCMV infected, animal 2, day 5) was 41 mg/dL and the “Glucose Levels” value ([1]; 5 mg/ml, HCMV infected, animal 3, day 0) was 177 mg/dL. The “Glucose Levels” value ([1]; 5 mg/ml, HCMV infected, animal 3, day 1) was 93 mg/dL, the “Glucose Levels” value ([1]; 5 mg/ml, HCMV infected, animal 3, day 3) was 47 mg/dL and the “Glucose Levels” value ([1]; 5 mg/ml, HCMV infected, animal 3, day 5) was 33 mg/dL. For the same compound, the “Glucose Levels” value ([1]; 10 mg/ml, HCMV infected, animal 1, day 0) was 169 mg/dL, the “Glucose Levels” value ([1]; 10 mg/ml, HCMV infected, animal 1, day 1) was 118 mg/dL and the “Glucose Levels” value ([1]; 10 mg/ml, HCMV infected, animal 1, day 3) was 103 mg/dL. The “Glucose Levels” value ([1]; 10 mg/ml, HCMV infected, animal 1, day 4) was 59 mg/dL, the “Glucose Levels” value ([1]; 10 mg/ml, HCMV infected, animal 1, day 5) was 45 mg/dL and the “Glucose Levels” value ([1]; 10 mg/ml, HCMV infected, animal 2, day 0) was 194 mg/dL. The “Glucose Levels” value ([1]; 10 mg/ml, HCMV infected, animal 2, day 1) was 89 mg/dL, the “Glucose Levels” value ([1]; 10 mg/ml, HCMV infected, animal 2, day 3) was 98 mg/dL and the “Glucose Levels” value ([1]; 10 mg/ml, HCMV infected, animal 2, day 4) was 69 mg/dL. The “Glucose Levels” value ([1]; 10 mg/ml, HCMV infected, animal 2, day 5) was 62 mg/dL, the “Glucose Levels” value ([1]; 10 mg/ml, HCMV infected, animal 3, day 0) was 201 mg/dL and the “Glucose Levels” value ([1]; 10 mg/ml, HCMV infected, animal 3, day 1) was 76 mg/dL. For the same compound, the “Glucose Levels” value ([1]; 10 mg/ml, HCMV infected, animal 3, day 3) was 74 mg/dL, the “Glucose Levels” value ([1]; 10 mg/ml, HCMV infected, animal 3, day 4) was 87 mg/dL and the “Glucose Levels” value ([1]; 10 mg/ml, HCMV infected, animal 3, day 5) was 55 mg/dL. The “Glucose Levels” value ([1]; 10 mg/ml, HCMV infected, animal 4, day 0) was 184 mg/dL, the “Glucose Levels” value ([1]; 10 mg/ml, HCMV infected, animal 4, day 1) was 81 mg/dL and the “Glucose Levels” value ([1]; 10 mg/ml, HCMV infected, animal 4, day 3) was 85 mg/dL. For the same compound, the “Glucose Levels” value ([1]; 10 mg/ml, HCMV infected, animal 4, day 4) was 65 mg/dL, the “Glucose Levels” value ([1]; 10 mg/ml, HCMV infected, animal 4, day 5) was 53 mg/dL and the “Glucose Levels” value ([1]; 15 mg/ml, not infected, animal 1, day 0) was 177 mg/dL. For the same compound, the “Glucose Levels” value ([1]; 15 mg/ml, not infected, animal 1, day 3) was 48 mg/dL, the “Glucose Levels” value ([1]; 15 mg/ml, not infected, animal 2, day 0) was 177 mg/dL and the “Glucose Levels” value ([1]; 15 mg/ml, not infected, animal 2, day 3) was 59 mg/dL. The “Glucose Levels” value ([1]; 15 mg/ml, not infected, animal 2, day 5) was 7 mg/dL, the “Glucose Levels” value ([1]; 15 mg/ml, not infected, animal 3, day 0) was 177 mg/dL and the “Glucose Levels” value ([1]; 15 mg/ml, not infected, animal 3, day 5) was 22 mg/dL. For the same compound, the “Glucose Levels” value ([1]; 15 mg/ml, not infected, animal 3, day 6) was 22 mg/dL, the “Glucose Levels” value ([1]; 15 mg/ml, not infected, animal 3, day 7, (10 ml/rabbit 20% Dextrose)) was 73 mg/dL and the “Glucose Levels” value ([1]; ave 5 mg/ml, HCMV infected, day 0) was 177 mg/dL. For the same compound, the “Glucose Levels” value ([1]; ave 5 mg/ml, HCMV infected, day 1) was 97 mg/dL, the “Glucose Levels” value ([1]; ave 5 mg/ml, HCMV infected, day 3) was 55 mg/dL and the “Glucose Levels” value ([1]; ave 5 mg/ml, HCMV infected, day 5) was 34 mg/dL. For the same compound, the “Glucose Levels” value ([1]; ave 10 mg/ml, HCMV infected, day 0) was 187 mg/dL, the “Glucose Levels” value ([1]; ave 10 mg/ml, HCMV infected, day 1) was 91 mg/dL and the “Glucose Levels” value ([1]; ave 10 mg/ml, HCMV infected, day 3) was 90 mg/dL. For the same compound, the “Glucose Levels” value ([1]; ave 10 mg/ml, HCMV infected, day 4) was 70 mg/dL, the “Glucose Levels” value ([1]; ave 10 mg/ml, HCMV infected, day 5) was 54 mg/dL and the “Glucose Levels” value ([1]; ave 15 mg/ml, not infected, day 0) was 177 mg/dL. The “Glucose Levels” value ([1]; ave 15 mg/ml, not infected, day 3) was 54 mg/dL, the “Glucose Levels” value ([1]; ave 15 mg/ml, not infected, day 5) was 15 mg/dL and the “Glucose Levels” value ([1]; ave 15 mg/ml, not infected, day 6) was 22 mg/dL. For the same compound, the “Glucose Levels” value ([1]; ave 15 mg/ml, not infected, day 7, (10 ml/rabbit 20% Dextrose)) was 73 mg/dL, the blood glucose levels ([1]; infected, 10 mg/ml (750 mg/Kg/day) and 5 mg/ml (375 mg/Kg/day)) was “significant drop in blood glucose levels” and the average glucose levels ([1]; infected, day five) was 30 to 50 mg/dL. The average glucose levels ([1]; infected, day one) was about 90 mg/dL, the Glucose Levels ([1]; uninfected, 15 mg/ml (1125 mg/Kg/day)) was “significant drop in their glucose levels” and the Glucose Levels [1, 3] was 7 to 22 mg/dL. The “condition of the animals” value [1, 3] was “very lethargic”, the Glucose Levels ([1]; uninfected, 15 mg/ml (1125 mg/Kg/day), day three) was 48 to 59 mg/dL and the “level of glucose after 10 mls of a 20% solution of dextrose” value ([1]; uninfected, 15 mg/ml, day 7) was 70 mg/dL. For the same compound, the “drop in insulin levels” value ([2]; lean animals) was “over 50%” and the “drop in level of glucose” value ([2]; lean rats, vs Day 0, n=3) was “about 15%”.
